In this test the target is T1, adenylate kinase (AK), wild-type (WT) (Escherichia coli, UniProt P69441).
T1 construct: gene adk; purified recombinant, details only in ESI
Nature of the test: microscale thermophoresis. It counts as binding.

Like-named read-outs stand apart in the source and are kept apart here.

T1 sequence (P69441 whole entry): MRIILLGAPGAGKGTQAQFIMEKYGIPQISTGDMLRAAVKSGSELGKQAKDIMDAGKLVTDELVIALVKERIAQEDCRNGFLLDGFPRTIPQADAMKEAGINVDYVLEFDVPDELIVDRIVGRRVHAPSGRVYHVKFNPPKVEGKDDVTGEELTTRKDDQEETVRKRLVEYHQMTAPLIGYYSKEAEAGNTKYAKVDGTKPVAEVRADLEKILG

In the case of `Nc1ncnc2c1ncn2[C@@H]1O[C@H](COP(=O)(O)O)[C@@H](O)[C@H]1O` [AMP], the Kd (read-out: Kd (AMP)) is 332 ± 40 µM.
Consider `Nc1ncnc2c1ncn2[C@@H]1O[C@H](COP(=O)(O)OP(=O)(O)OP(=O)(O)O)[C@@H](O)[C@H]1O` [ATP], for which the Kd (read-out: WT) amounted to 159 ± 17 µM.

(Values after paper PMC11770808, “Interplay between conformational dynamics and substrate binding regulates enzymatic activity: a single-molecule FRET study” (Chemical Science, 2025).)
